Reference: article PMC7064771, “Repurposed Drugs That Block the Gonococcus-Complement Receptor 3 Interaction Can Prevent and Cure Gonococcal Infection of Primary Human Cervical Epithelial Cells” (mBio, 2020)
“Also recorded” adds a separate entry of the source.

Experiments:
[1] = tested on: N. gonorrhoeae adherence to Pex cells; experiment: Fluorometric adherence assay, Pex cells; format: cell-based, human; conditions: for Gonococcal adherence to Pex cells (fluorescence): 1-h infection with GFP-expressing N. gonorrhoeae, competitor added simultaneously
Method: (§1) Fluorometric adherence assays were performed essentially as described previously ([36]). In brief, N. gonorrhoeae MS11 gfp was used to challenge (1 h) Pex or CHO cells simultaneously with peptide or drug competitor. Infected (devoid of peptide or drug) and uninfected (with peptide, drug, or dimethyl sulfoxide [DMSO] vehicle) control cell assays were treated in parallel with competitive peptide/drug inhibition assays. Fluorescence (485 nm excitation, 528 nm emission) intensity, corresponding to bacterial adherence, was recorded using a Synergy HT multimode microplate reader (BioTek Instruments, Winooski, VT, USA). Blank wells, devoid of Pex or CHO cells, were inoculated with bacteria and served as a control for nonspecific binding. Each assay was performed in triplicates on 3 separate occasions. Peptides used are described in Table S1. A nonparametric analysis of variance (ANOVA) was used to determine the statistical significance of the calculated mean of bacterial adherence.

[2] = tested on: N. gonorrhoeae adherence to CHO-CR3 cells; experiment: Fluorometric adherence assay, CHO-CR3 cells; format: cell-based, Chinese hamster; conditions: for Gonococcal adherence to CHO-CR3 cells (fluorescence): 1-h infection with GFP-expressing N. gonorrhoeae, competitor added simultaneously
Method: as §1

[3] = tested on: N. gonorrhoeae adherence to CHO-neo cells; experiment: Fluorometric adherence assay, CHO-neo cells; format: cell-based, Chinese hamster; conditions: 1-h infection; cells do not express CR3
Method: as §1

human rI-domain [4] = biological target: T1, human rI-domain (Homo sapiens, UniProt P11215); experiment: Repurposed drug SPR against human CR3 I-domain (single-cycle kinetics); conditions: 10 nM to 0.625 nM, read-out: KD, binding to human rI-domain
T1 construct: Recombinant human and mouse I-domain proteins were made and purified as previously described; made in house
Method: Human rI-domain was immobilized onto a CM5 sensor chip with a blank control flow cell as described above. A combination of two FDA-approved drug libraries, Microsource-CPOZ (2,400 drugs) and ML Drug (741 drugs), was purchased from Compounds Australia. […] A single-concentration injection screen (yes/no) binding assay was performed. Binding was determined based on the response unit shift (equal to the molecular weight-corrected response units of the positive-control glycan) of the stability of the binding phase of the dissociation cycle. […] For carbamazepine and methyldopa, saturation occurred between 1.6 nM and 8 nM, and so a new concentration range (10 nM to 0.625 nM) was tested. […] All SPR sensorgrams and result plots described above were analyzed with Biacore S200 evaluation software (GE Healthcare Life Sciences). A literature review was used to evaluate the remaining drugs for known long-term safety in humans and known therapeutic concentrations.

human rI-domain [5] = biological target: T1, human rI-domain; experiment: Direct competition SPR, drug versus N. gonorrhoeae MS11 pilin; format: binding; conditions: drug and pilin at 1 μM
[6] = orally administered, prescribed use; cited from earlier work
N. gonorrhoeae strains = experiment: Well diffusion assay; format: cell-based, Neisseria gonorrhoeae; conditions: 100 pM to 100 μM in wells, overnight
Method: Well diffusion assays were performed essentially as described previously ([56]). Briefly, N. gonorrhoeae strains were spread uniformly across the surfaces of GC agar plates at a culture density of 10^7 bacteria per ml. Wells were then punctured within the agar surface to which carbamazepine or methyldopa (100 pM to 100 μM), 0.2 μg/ml ceftriaxone, 10 μg/ml ciprofloxacin, or 1% DMSO (vehicle control) was added. Following an overnight incubation (37°C, 5% CO2), inhibition of N. gonorrhoeae growth was measured as the diameter (in millimeters) of the area of clearing surrounding (and inclusive of) each well on each agar plate, i.e., the zone of inhibition (ZOI). For agar plates in which a ZOI was not visible, data were recorded as the diameter of the well (6 mm). Assays were performed in triplicates on 3 separate occasions. Statistical significance of data obtained was determined using a Student's t test.

[7] = tested on: N. gonorrhoeae infection of Pex cells; conditions: for N. gonorrhoeae strain MS11 survival / Numbers of viable gonococci, low-passage-number gonococcal isolates: 24 h posttreatment; for N. gonorrhoeae strain MS11 survival: 100 pM to 100 μM; for Numbers of viable gonococci, low-passage-number gonococcal isolates: established Pex cell infections; for Efficacy in treating multidrug-resistant gonococci compared with ceftriaxone: panel of multidrug-resistant N. gonorrhoeae isolates
Method: Infection studies were performed as previously described with modification using a multiplicity of infection of 100 ([44]). To establish infection before treatment, Pex cells were challenged with N. gonorrhoeae for 90 min. The infection medium was then removed, the cells were rinsed thrice, and fresh medium containing 0.1% DMSO (vehicle control), carbamazepine (100 pM to 100 μM), methyldopa (100 pM to 100 μM), or ceftriaxone (0.1 μg/ml or 0.5 μg/ml, positive control) was added. Infections then proceeded for an additional 24 h or 48 h, after which, the infection medium was removed. Pex cell monolayers were subsequently lysed, serial dilutions of the Pex cell lysates were plated, and viable gonococci were enumerated by counting CFU after 48 h of incubation (37°C, 5% CO2). For sequential infection assays, viable bacterial colonies that survived a treatment assay were harvested from the enumeration (CFU) plates and used to inoculate new Pex cell monolayers. For these sequential assays, each infection (the original infection or the infection with bacteria that had survived the original infection) proceeded for 24 h. Pex cells were then processed, and bacteria were enumerated, as described above. For all assays, the percentage of N. gonorrhoeae that survived carbamazepine, methyldopa, or ceftriaxone treatment was determined as a function of bacteria that survived DMSO treatment (set to 100%). All assays were performed in triplicates on 3 separate occasions. A nonparametric ANOVA was used to determine the statistical significance of bacterial survival.

human rI-domain [8] = biological target: T1, human rI-domain; experiment: Competitive SPR peptide library screen with galactobiose, rI-domain; format: binding; conditions: peptide-galactobiose molar ratio 25:1
From the text: (§2) The human I-domain sequence (NP_000623.2, amino acids Gly127 to Ala325 of CD11b) was used to generate a peptide library (Mimotopes; Mulgrave, VIC, Australia). Each peptide comprised 15 amino acids, with a 5-amino-acid sliding window, to give a 10-amino-acid overlap down the sequence, for a total of 40 peptides (see Table S1 in the supplemental material). Competitive SPR (Biacore T200 system; GE Healthcare Life Sciences) was used to screen the blocking potential of the peptide library. To this end, 100 μg/ml of each peptide was mixed with […] (2 μM) α1-3 galactobiose and flowed over immobilized human rI-domain and rCR3 on a Series S CM5 chip. Flow cell 1 was a blank immobilization/reference cell. Blocking peptides were defined as those peptides in which the peptide plus glycan response was less than those for the peptide and glycan alone. SPR sensorgrams were analyzed as noted above.

rCR3 = biological target: T2, rCR3 (Homo sapiens, UniProt P11215); experiment: Competitive SPR peptide library screen with galactobiose, rCR3; format: binding; conditions: peptide-galactobiose molar ratio 25:1
T2 construct: purchased R&D Systems
From the text: as §2

Row | Compound | Gonococcal adherence to Pex cells (fluorescence) [1] | Gonococcal adherence to CHO-CR3 cells (fluorescence) [2] | Gonococcal adherence to CHO-neo cells (fluorescence) [3] | Kd (human rI-domain [4]) | Blocking of the interaction of N. gonorrhoeae MS11 pilin with rCR3 or rI-domain (human rI-domain [5]) | Concentration in serum [6] | Effect on gonococcal viability in the absence of Pex cells (zone of inhibition) (N. gonorrhoeae strains) | N. gonorrhoeae strain MS11 survival [7] | Numbers of viable gonococci, low-passage-number gonococcal isolates [7] | Killing of survivor population in second sequential infection ([7]; bacteria harvested from a 24-h treated infection, re-used and treated again for 24 h) | Efficacy in treating multidrug-resistant gonococci compared with ceftriaxone [7] | Gonococcal adherence to Pex cells, difference from uninfected cells ([1]; 100 μM peptide, P ≥ 0.45) | Gonococcal adherence to CHO-CR3 cells, difference from uninfected cells ([2]; 100 μM peptide, P ≥ 0.67) | Blocking of galactobiose binding to rI-domain (human rI-domain [8]) | Blocking of galactobiose binding to rCR3 (rCR3) | Gonococcal adherence to Pex cells (fluorescence) ([1]; listed as Methyldopa)
1 | NC(=O)N1c2ccccc2C=Cc2ccccc21 [carbamazepine] | dose-dependent decrease; also recorded: decreased in a dose-dependent manner | dose-dependent decrease; also recorded: decreased in a dose-dependent manner | no effect; also recorded: but not to CHO-neo cells | 2.12 nM | completely blocked | ~17 µM | neither carbamazepine nor methyldopa had an effect; also recorded: no effect | dose-dependent reductions | significant reductions | 100% | more effective than ceftriaxone |  |  |  |  | 
2 | H-RIHFTFKEFQNNPNP-OH [G2] | decreased; also recorded: dose-dependent reduction | decreased; also recorded: dose-dependent reduction |  |  |  |  |  |  |  |  |  | not significantly | not significantly | able to block | able to block | 
3 | C[C@](N)(Cc1ccc(O)c(O)c1)C(=O)O [methyldopa] | decreased in a dose-dependent manner | decreased in a dose-dependent manner; also recorded: CR3- and dose-dependent reduction | but not to CHO-neo cells | 1.01 nM | completely blocked |  | no effect; also recorded: neither carbamazepine nor methyldopa had an effect | dose-dependent reductions | significant reductions |  | more effective than ceftriaxone |  |  |  |  | dose-dependent decrease
